Where two headings read alike, the source gives them in different places.
Tests used:
[1] = Plasma protein binding (mouse); type: in vitro ADME
[2] = In vitro metabolism with mouse liver microsomes; type: in vitro ADME; details: % remaining of compound after 60 min treatment with mouse liver microsomes
Description: In vitro metabolism of NUCC-176242 and NUCC-176248 were tested using mouse liver microsomes and a mouse S9 fraction. (See FIG. 9).

[3] = Potency code of Table 2 (assay not stated)
[4] = tested on: MV411 cells xenograft; assay: AML xenograft model, combination with Ara-C; type: in vivo, CB17 SCID mice; details: AML mice xenograft
Description: CB17 SCID mice were inoculated with MV411 cells at the density of 5×10^6 suspended in PBS and matrigel (1:1). The mice were randomized based on tumor volume into 6 different groups after the tumor reached ˜200 to 500 mm^3. The mice were treated either with vehicle, NU031, NU975 alone or in combination with cytarabine (Ara-C). […] (See FIG. 17).

[5] = tested on: MYC WT and MYC KO rat fibroblasts; assay: Growth inhibition of wild type and MYC knockout rat fibroblasts; type: cell-based
Text: We tested the top 13 active compounds in the first screen assay. […] More than half of the tested compounds show better growth inhibitory effect on MYC WT compared to MYC KO cells.

[6] = Pharmacokinetics in mice after IV dosing; type: in vivo; details: 5 mg/kg intravenously
Description: The pharmacokinetics of NUCC-176242 and NUCC-176248 were studied in mice by administering a dose of 5 mg/kg intravenously and measuring the plasma concentration versus time. (See FIG. 10).
The pharmacokinetics of NUCC-176242 and NUCC-176248 were studied in mice by administering a dose of 5 mg/kg intravenously and measuring the plasma concentration versus time.

[7] = tested on: PC12 cells; assay: Cell viability / proliferation of PC12 cells (MTS); type: cell-based
Description: PC3 prostate cancer cell line with high Myc level and PC12 pheochromocytoma tumor cell line with non functional Max protein, which is not dependent on Myc-Max complex, were phased from ATCC. Cells were plated in 96 well plate at 1000 cells per well, and Myc inhibitor 361 at various concentrations was added to the cells next day. After 3 days of treatment, fresh medium with 361 were added again, and cell viability was measured by MTS assay at day 5 after the treatment. (See FIG. 11).

[8] = tested on: MycCap cells; assay: Cell viability of MycCap cells; type: cell-based
[9] = target: MYC/Max binding to DNA (Homo sapiens, UniProt P01106); assay: Electrophoretic mobility shift assay (EMSA) of MYC/Max binding to DNA
Description: We also tested our best hit compound Min9 (NUCC-0176234) and newly synthesized analogs for effects of these compounds on MYC/Max binding to DNA in electrophoretic mobility shift assays (EMSAs). (See FIG. 5a and FIG. 5b). We expected the active compounds to impair MYC/Max binding to DNA. Several structural analogs of Min9 were tested over multiple doses for inhibiting MYC-DNA binding and we observed a dose-dependent inhibition. (See FIG. 5c).

[10] = tested on: DNA damage (rH2AX); assay: rH2AX staining assay for DNA damage; type: cell-based
Description: Min9 (NUCC-0176234) was also tested for its ability to cause DNA damage in an rH2AX staining assay. We would not expect cMYC-targeting agents to produce significant DNA damage. Compounds that act directly against DNA such as doxorubicin do however. […] (See FIG. 6).

[11] = tested on: cMYC wild-type (WT) and cMYC KO line; assay: Cell viability assay, cMYC wild-type line versus cMYC KO line; type: cell-based
Description: Min9 (NUCC-0176234) was also tested in a cell viability assay against a cMYC wild-type (WT) and a cMYC KO line.

[12] = tested on: CMV reporter; assay: CMV reporter assay (control reporter beside the Ebox reporter); type: cell-based
[13] = tested on: MYC transcriptional activity (c-Myc E-box-luciferase reporter, MycCap cells); assay: MYC E-box luciferase reporter assay; type: cell-based; details: Mus musculus, Myc-CaP
Description: To test the compounds, we evaluated the in silico hits in a MYC E-Box luciferase reporter assay to measure the effects of these compounds (referred to as Min-1 to Min-32) on MYC transcriptional activity. […] (See FIG. 2).
MycCap cells stably expressing luciferase with CMV promoter (MycCap-luc) or c-Myc E-box-luciferase reporter (MycCap Ebox-luc) were plated at 10000 cells per well in 96 well white-wall plate. Serial dilutions of 361 were treated next day. At 4 hours of treatment, luminescence signal was determined immediately after adding 150 μg/ml of Luciferin to the well. (See FIG. 12).

[14] = class symbols, read-out: Ebox reporter: IC50
[15] = given as numeric bound, read-out: Ebox reporter: IC50

Sequence of MYC/Max binding to DNA (P01106 whole entry): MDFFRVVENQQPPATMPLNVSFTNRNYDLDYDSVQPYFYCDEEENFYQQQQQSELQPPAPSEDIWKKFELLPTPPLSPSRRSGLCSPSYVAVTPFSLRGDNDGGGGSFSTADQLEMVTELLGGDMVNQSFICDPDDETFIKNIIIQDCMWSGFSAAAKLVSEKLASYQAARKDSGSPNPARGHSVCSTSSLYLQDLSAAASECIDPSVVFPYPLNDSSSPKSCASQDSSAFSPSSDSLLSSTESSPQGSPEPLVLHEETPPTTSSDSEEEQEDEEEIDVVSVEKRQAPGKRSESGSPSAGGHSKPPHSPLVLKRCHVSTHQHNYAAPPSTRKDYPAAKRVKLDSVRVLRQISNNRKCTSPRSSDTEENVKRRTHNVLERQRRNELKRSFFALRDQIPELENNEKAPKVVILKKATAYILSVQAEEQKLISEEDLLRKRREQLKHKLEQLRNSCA

Oc1c(-c2cc(C(F)(F)F)n[nH]2)ccc(OCCN2CCCC2)c1-c1cc(C(F)(F)F)cc(C(F)(F)F)c1 [NUCC-0201032]
fraction unbound [1]: < 0.001
MLM % at 60 min [2]: 30.5%
Potency code [3]: + (>40 +)

Cn1nc(C(F)(F)F)cc1-c1ccc(OCc2ccc(Cl)cc2)c(-c2ccc(Cl)c(C(F)(F)F)c2)c1O [NU975]
anti-tumor effect in combination with Ara-C [4]: significant difference compared to control group

CCCCOc1ccc(-c2cc(C(F)(F)F)n(C)n2)c(O)c1-c1cncc(C(F)(F)F)c1 [NUCC-0201209]
MLM % at 60 min [2]: 10.3%
Potency code [3]: + (>40 +)

CCc1c(OCc2ccc(Cl)cc2)ccc(-c2cc(C(F)(F)F)n[nH]2)c1O [NUCC-0200739]
MLM % at 60 min [2]: 46.4%
Potency code [3]: + (>40 +)

CCCCOc1ccc(-c2cc(C(F)(F)F)n[nH]2)c(O)c1-c1cc(C(F)(F)F)cc(C(F)(F)F)c1 [NU031]
anti-tumor effect in combination with Ara-C [4]: significant difference compared to control group

Cn1nc(C(F)(F)F)cc1-c1ccc(OCc2ccc(Cl)cc2)cc1C=O [NUCC-0200976]
fraction unbound [1]: < 0.001
MLM % at 60 min [2]: 21.8%
Potency code [3]: + (>40 +)

CCc1ccc(Oc2c(-c3ccc(OCc4ccncc4)cc3O)n[nH]c2C(F)(F)F)cc1 [NUCC-0176250]
selectivity of growth inhibition, MYC WT versus MYC KO [5]: great selectivity
Potency code [3]: + (>40 +)

Cn1nc(C(F)(F)F)cc1-c1ccc(OCc2ccc(Cl)cc2)c(-c2ccc(Cl)c(C(F)(F)F)c2)c1O [compound 975]
anti-tumor effect in combination with Ara-C [4]: significant synergic anti-tumor effect

Cn1nc(C(F)(F)F)cc1-c1ccc(OCc2ccc(Cl)cc2)c(-c2cc(C(F)(F)F)cc(C(F)(F)F)c2)c1O [NUCC-0196361]
fraction unbound [1]: < 0.001
MLM % at 60 min [2]: 72.9%
Potency code [3]: ++++ (<10 ++++)

CCc1ccc(Oc2c(-c3ccc(OCc4ccc(Cl)cc4)cc3O)nn(C)c2C(F)(F)F)cc1 [NUCC-0176248]
selectivity of growth inhibition, MYC WT versus MYC KO [5]: high specificity
in vivo metabolism (plasma concentration versus time) [6]: correlated well with the observed in vitro metabolism
Potency code [3]: + (>40 +)

CC(C)CCOc1ccc(-c2cc(C(F)(F)F)n[nH]2)c(O)c1-c1cc(C(F)(F)F)cc(C(F)(F)F)c1 [NUCC-0201198]
IC50 ([7]; Rattus norvegicus, PC-12): 8.2 µM
IC50 ([8]; Mus musculus, Myc-CaP): 2.6 µM
Potency code [3]: +++ (10-30 +++)

Oc1cc(OCc2ccc(Cl)cc2)ccc1-c1n[nH]c(C(F)(F)F)c1Oc1ccccc1Cl [NUCC-0196342]
MLM % at 60 min [2]: 87.4%
Potency code [3]: ++++ (<10 ++++)

CCCCCCOc1ccc(-c2cc(C(F)(F)F)n[nH]2)c(O)c1-c1cc(C(F)(F)F)cc(C(F)(F)F)c1 [NUCC-0201196]
MLM % at 60 min [2]: 66.6%
Potency code [3]: +++ (10-30 +++)

Cn1nc(C(F)(F)F)cc1-c1ccc(OCc2ccc(Cl)cc2)c(-c2cccc(C#N)c2)c1O [NUCC-0198399]
MLM % at 60 min [2]: 80.3%
Potency code [3]: ++++ (<10 ++++)

CCc1ccc(Oc2c[nH]nc2-c2ccc(OCc3cnn(-c4ccccc4)c3)cc2O)cc1 [NUCC-0176234]
inhibition of MYC/Max (c-MYC) binding to DNA ([9]; in words): prevent c-MYC/DNA binding
DNA damage [10]: essentially no DNA damage
cell viability, WT line versus KO cells [11]: reduces cell viability much more in the WT line than the KO cells
Potency code [3]: + (>40 +)

COc1cccc(-c2c(-c3ccc(OCc4ccc(Cl)cc4)cc3O)n[nH]c2C(F)(F)F)c1 [NUCC-0198309]
MLM % at 60 min [2]: 74%
Potency code [3]: ++++ (<10 ++++)

CCOC(=O)c1cc(-c2ccc(OCc3ccc(Cl)cc3)c(-c3cc(C(F)(F)F)cc(C(F)(F)F)c3)c2O)n[nH]1 [NUCC-0200972]
fraction unbound [1]: < 0.001
MLM % at 60 min [2]: 60.3%
Potency code [3]: + (>40 +)

Oc1c(-c2cc(C(F)(F)F)[nH]n2)ccc(OCc2ccc(Cl)cc2)c1-c1ccccc1Cl [NUCC-0196363]
MLM % at 60 min [2]: 88.6%
Potency code [3]: ++++ (<10 ++++)

CCCCCCOc1ccc(-c2cc(C(F)(F)F)nn2C)c(O)c1-c1cncc(C#N)c1 [NUCC-0201207]
MLM % at 60 min [2]: 52.7%
Potency code [3]: +++ (10-30 +++)

CCc1ccc(Oc2c(-c3ccc(OCc4cccc(Cl)c4)cc3O)n[nH]c2C(F)(F)F)cc1 [NUCC-0196295]
IC50 [9]: 66.8 µM
Potency code [3]: +++ (10-30 +++)

O=C1CCC(N2C(=O)c3cccc(OCc4cn(CCOCCOCCOCCOCC(=O)Nc5ccc(COc6ccc(-c7cc(C(F)(F)F)n[nH]7)c(O)c6-c6cc(C(F)(F)F)cc(C(F)(F)F)c6)cc5)nn4)c3C2=O)C(=O)N1 (centres unmarked) [NUCC-0201203]
IC50 [8]: 32.4 µM
Potency code [3]: ++ (30-40 ++)

Oc1c(-c2cc(C(F)(F)F)[nH]n2)ccc(Oc2ccc(Cl)cc2)c1-c1cc(C(F)(F)F)cc(C(F)(F)F)c1 [NUCC-0201223]
MLM % at 60 min [2]: 75.8%
Potency code [3]: ++++ (<10 ++++)

O=C1CCC(N2C(=O)c3cccc(OCc4cn(CCOCCOCCOCC(=O)Nc5ccc(COc6ccc(-c7cc(C(F)(F)F)n[nH]7)c(O)c6-c6cc(C(F)(F)F)cc(C(F)(F)F)c6)cc5)nn4)c3C2=O)C(=O)N1 (centres unmarked) [NUCC-0201202]
IC50 [7]: 23.1 µM
IC50 [8]: 4 µM
Potency code [3]: +++ (10-30 +++)

Cn1nc(-c2ccc(CNc3ccc(Cl)c(C(F)(F)F)c3)cc2O)cc1C(F)(F)F [NUCC-0202981]
IC50 ([12]; class symbols): > 50 µM
IC50 ([13]; class symbols, read-out: Eboc reporter IC50): 10 to 50 µM

Cn1nc(C(F)(F)F)c(Oc2ccc(F)c(Cl)c2)c1-c1ccc(OCc2ccc(Cl)cc2)cc1O [NUCC-0202637]
IC50 [12]: 43 µM
IC50 [13, 14]: 5 to 10 µM

Cn1nc(C(F)(F)F)cc1-c1ccc(N(Cc2ccc(Cl)cc2)C(=O)c2cncc(C(F)(F)F)c2)cc1O [NUCC-0202688]
IC50 [12]: > 50 µM
IC50 [13, 14]: 5 to 10 µM

NC(=O)c1cc(-c2ccc(OCc3ccc(Cl)cc3)c(-c3ccc(Cl)c(C(F)(F)F)c3)c2O)[nH]n1 [NUCC-0202521]
IC50 [12]: 34 µM
IC50 [13, 14]: 10 to 50 µM

Cn1nc(-c2ccc(COc3ccc(Cl)cc3)c(-c3ccc(Cl)c(C(F)(F)F)c3)c2O)cc1C(F)(F)F [NUCC-0202421]
IC50 [12]: > 50 µM
IC50 [13, 15]: > 50 µM

Oc1c(-c2cc(C(F)(F)F)n[nH]2)ccc(NCc2ccc(Cl)cc2)c1-c1ccc(Cl)c(C(F)(F)F)c1 [NUCC-0202433]
IC50 [12]: > 50 µM
IC50 [13, 14]: 5 to 10 µM

Cn1nc(-c2ccc(OCc3ccc(Cl)cc3)c(-c3ccc(Cl)c(C(F)(F)F)c3)c2O)cc1O [NUCC-0202644]
IC50 [12]: > 50 µM
IC50 [13, 14]: 10 to 50 µM

C=C(C)c1cc(-c2ccc(OCc3ccc(Cl)cc3)c(-c3ccc(C)c(C)c3)c2C)nn1C [NUCC-0202528]
IC50 [12]: 28 µM
IC50 [13, 14]: 10 to 50 µM

COCCOc1ccc(-c2cc(C(F)(F)F)n(C)n2)c(O)c1-c1ccc(Cl)c(C(F)(F)F)c1 [NUCC-0202426]
IC50 [12]: > 50 µM
IC50 [13, 15]: > 50 µM

Cc1cc(-c2ccc(OCc3ccc(Cl)cc3)c(-c3ccc(Cl)c(C(F)(F)F)c3)c2O)[nH]n1 [NUCC-0202532]
IC50 [12]: > 50 µM
IC50 [13, 14]: 10 to 50 µM

Cn1nc(-c2ccc(N(Cc3ccc(Cl)cc3)C(=O)c3cncc(C#N)c3)cc2O)cc1C(F)(F)F [NUCC-0202722]
IC50 [12]: > 50 µM
IC50 [13, 15]: > 50 µM

From patent US20200392116A1, “SUBSTITUTED HETEROCYCLES AS c-MYC TARGETING AGENTS” (NORTHWESTERN UNIVERSITY, priority 2019, published 2020)
